One test concerns the target T1, TBK1 (Homo sapiens, UniProt Q9UHD2).
T1 construct: His-tag; made in house; host or cells: Sf9 insect cells
T1 sequence (Q9UHD2 1-729): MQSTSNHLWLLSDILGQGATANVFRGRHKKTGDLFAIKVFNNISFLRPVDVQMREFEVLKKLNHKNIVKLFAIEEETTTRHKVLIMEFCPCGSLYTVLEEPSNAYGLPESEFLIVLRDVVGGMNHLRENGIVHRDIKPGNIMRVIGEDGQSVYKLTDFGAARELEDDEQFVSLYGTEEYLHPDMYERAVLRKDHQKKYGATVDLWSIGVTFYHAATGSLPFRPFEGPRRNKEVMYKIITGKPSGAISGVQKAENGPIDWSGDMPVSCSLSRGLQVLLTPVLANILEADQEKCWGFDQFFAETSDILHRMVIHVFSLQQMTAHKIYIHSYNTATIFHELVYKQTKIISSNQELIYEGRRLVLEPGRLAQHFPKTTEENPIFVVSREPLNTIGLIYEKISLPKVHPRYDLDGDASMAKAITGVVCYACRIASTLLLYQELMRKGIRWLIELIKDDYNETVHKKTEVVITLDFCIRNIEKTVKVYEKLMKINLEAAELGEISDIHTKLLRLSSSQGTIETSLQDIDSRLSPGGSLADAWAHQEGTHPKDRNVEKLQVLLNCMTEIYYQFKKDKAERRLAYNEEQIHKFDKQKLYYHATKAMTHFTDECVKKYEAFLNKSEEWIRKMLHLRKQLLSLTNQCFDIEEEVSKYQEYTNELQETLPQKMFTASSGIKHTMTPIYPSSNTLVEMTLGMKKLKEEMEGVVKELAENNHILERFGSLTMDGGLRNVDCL
Kind of test: In-vitro TBK1 kinase assay ([γ33]ATP filter-plate). It counts as biochemical. Particulars: text bins; read-out: IC50 for inhibition of the kinase activity of TBK1. The method, boiled down:
(§1)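 Phosphorylation of casein or myelin basic protein was counted by P-81 filter capture after 30-45 min reactions stopped with phosphoric acid, with counts normalized to DMSO after background subtraction. ATP was twice Km: 60 μM for TBK1 and 32 μM for IKKε, plus [γ33]ATP. Sf9-expressed His-tag enzymes were used at normal/sensitized levels of 0.1/0.02 μg/ml (TBK1) and 0.1/0.015 μg/ml (IKKε).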

The subject of test [1] is IKKε-mediated phosphorylation of IRF3. Kind of test: In-situ phosphorylation of IRF3 (pIRF3 Ser396 ELISA) in HEK293T cells cotransfected with IRF3 and IKKε. In kind it is cell-based. The conditions noted are these: Homo sapiens, HEK-293T; HEK293T cells, 20 hours, text bins; read-out: IC50 for inhibition of the in-situ IKKε-mediated phosphorylation of IRF3. The method, boiled down:
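For the IRF3 ELISA, HEK293T cells cotransfected with IRF3 and IKKε were replated at 20,000/well and treated 20 h. Phospho-Ser396 IRF3 was measured by ELISA and normalised to DMSO, with viability checked by CellTiter-Glo. For IRF7, cells transfected with IRF7 and TBK1 were treated overnight, and pSer477/Ser479 IRF7 was detected by Western blot.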
(ELISA stands for enzyme-linked immunosorbent assay.)

The next test addresses T2, IKKε (Homo sapiens, UniProt Q14164).
T2 construct: His-tag; made in house; host or cells: Sf9 insect cells
T2 sequence (Q14164 1-716): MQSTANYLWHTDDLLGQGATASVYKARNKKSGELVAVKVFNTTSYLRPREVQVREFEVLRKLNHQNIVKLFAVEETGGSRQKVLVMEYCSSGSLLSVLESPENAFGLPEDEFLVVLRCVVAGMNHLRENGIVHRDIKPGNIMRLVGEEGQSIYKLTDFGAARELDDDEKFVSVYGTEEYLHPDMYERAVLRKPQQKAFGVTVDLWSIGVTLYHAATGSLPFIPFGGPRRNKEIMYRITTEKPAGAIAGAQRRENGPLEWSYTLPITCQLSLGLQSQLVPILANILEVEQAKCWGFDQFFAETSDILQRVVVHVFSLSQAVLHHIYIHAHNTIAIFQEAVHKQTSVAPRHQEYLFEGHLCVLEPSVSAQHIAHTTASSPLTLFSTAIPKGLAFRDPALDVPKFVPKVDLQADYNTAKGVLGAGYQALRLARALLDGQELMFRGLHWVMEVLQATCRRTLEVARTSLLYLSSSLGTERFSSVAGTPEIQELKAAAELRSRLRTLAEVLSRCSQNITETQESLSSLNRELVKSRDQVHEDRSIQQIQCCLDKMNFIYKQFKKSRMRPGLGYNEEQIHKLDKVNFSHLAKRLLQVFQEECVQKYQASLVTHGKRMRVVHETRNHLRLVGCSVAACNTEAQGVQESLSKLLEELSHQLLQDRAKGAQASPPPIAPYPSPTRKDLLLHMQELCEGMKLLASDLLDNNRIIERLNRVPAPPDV
Put plainly: In-vitro IKKε kinase assay ([γ33]ATP filter-plate). It counts as biochemical. Particulars: text bins; read-out: IC50 for inhibition of the kinase activity of IKKε. The method, boiled down:
as §1

One may read the IC50 as the concentration that inhibits the measured activity by half.

Regarding `COc1cc(-c2ccnc(Nc3ccc(N4CCOCC4)cc3)n2)cc(C#N)c1OC1CCNCC1` [compound 440, 3-Methoxy-5-(2-{[4-(morpholin-4-yl)phenyl]amino}pyrimidin-4-yl)-2-(piperidin-4-yloxy)benzonitrile], the 50% inhibitory concentration (IC50) is under 10 nM on TBK1, under 100 nM in test [1] and under 5 nM at IKKε.

`CC1(COc2ccc(-c3ccnc(Nc4ccc(N5CCOCC5)cc4)n3)cc2C#N)COC1` [compound 444, 2-[(3-Methyloxetan-3-yl)methoxy]-5-(2-{[4-(morpholin-4-yl)phenyl]amino}pyrimidin-4-yl)benzonitrile]: the IC50 at TBK1 is under 10 nM; in test [1], under 100 nM; at IKKε, under 5 nM.

As to `CCC(=O)Nc1ccc(-c2ccnc(Nc3ccc(N4CCOCC4)cc3)n2)cc1C#N` [compound 445, N-[2-Cyano-4-(2-{[4-(morpholin-4-yl)phenyl]amino}pyrimidin-4-yl)phenyl] propanamide], the concentration for half-maximal inhibition (IC50) on TBK1 was under 10 nM; in test [1] it was 250 to 500 nM; at IKKε, 5 to 50 nM.

Consider `N#Cc1cc(-c2ccnc(Nc3ccc(N4CCOCC4)cc3)n2)ccc1NC1CCOCC1` [compound 468, 5-(2-{[4-(morpholin-4-yl)phenyl]amino}pyrimidin-4-yl)-2-(tetrahydro-2H-pyran-4-ylamino) benzonitrile], for which the IC50 is under 10 nM at TBK1, under 100 nM in test [1] and 5 to 50 nM at IKKε.

`COc1cc(Nc2nccc(-c3ccc(OC4CCOCC4)c(C#N)c3)n2)ccc1C(=O)N1CC(N2CCOCC2)C1` [compound 475, 5-{2-[(3-Methoxy-4-{[3-(morpholin-4-yl)azetidin-1-yl]carbonyl}phenyl)amino]pyrimidin-4-yl}-2-(tetrahydro-2H-pyran-4-yloxy)benzonitrile]: the IC50 was under 10 nM on TBK1, under 100 nM in test [1] and under 5 nM at IKKε.

Regarding `COc1cc(Nc2nccc(-c3ccc(OC4CCOCC4)c(C#N)c3)n2)ccc1C(=O)N1CCN(CCO)CC1` [compound 476, 5-{2-[(4-{[4-(2-Hydroxyethyl)piperazin-1-yl]carbonyl}-3-methoxyphenyl)amino]pyrimidin-4-yl}-2-(tetrahydro-2H-pyran-4-yloxy)benzonitrile], the concentration for half-maximal inhibition (IC50) is under 10 nM on TBK1, under 100 nM in test [1] and under 5 nM at IKKε.

Consider `COc1cc(Nc2nccc(-c3ccc(OC4CCOCC4)c(C#N)c3)n2)ccc1CN1CCN(CCO)CC1` [compound 477, 5-{2-[(4-{[4-(2-Hydroxyethyl)piperazin-1-yl]methyl}-3-methoxyphenyl)amino]pyrimidin-4-yl}-2-(tetrahydro-2H-pyran-4-yloxy)benzonitrile], for which the IC50 on TBK1 is 10 to 100 nM; in test [1], under 100 nM; on IKKε it was under 5 nM.

Turning to `COCCNCc1ccc(Nc2nccc(-c3ccc(OC4CCOCC4)c(C#N)c3)n2)cc1OC` [compound 478, 5-{2-[(3-Methoxy-4-{[(2-methoxyethyl)amino]methyl}phenyl)amino]pyrimidin-4-yl}-2-(tetrahydro-2H-pyran-4-yloxy)benzonitrile], the IC50 was under 10 nM at TBK1, under 100 nM in test [1] and under 5 nM at IKKε.

Turning to `COc1cc(Nc2nccc(-c3ccc(OC4CCOCC4)c(C#N)c3)n2)ccc1CN1CCN(C)CC1` [compound 479, 5-[2-({3-Methoxy-4-[(4-methylpiperazin-1-yl)methyl]phenyl}amino)pyrimidin-4-yl]-2-(tetrahydro-2H-pyran-4-yloxy)benzonitrile], the IC50 on TBK1 was under 10 nM; in test [1] it was under 100 nM; at IKKε, under 5 nM.

`COc1cc(Nc2nccc(-c3ccc(OC4CCOCC4)c(C#N)c3)n2)ccc1CN1C[C@@H](C)O[C@@H](C)C1` [compound 480, 5-{2-[(4-{[(2R,6S)-2,6-Dimethylmorpholin-4-yl]methyl}-3-methoxyphenyl)amino]pyrimidin-4-yl}-2-(tetrahydro-2H-pyran-4-yloxy)benzonitrile]: the figures for the IC50 (on TBK1; in test [1]; on IKKε) were under 10 nM, under 100 nM and under 5 nM, respectively.

With `COc1cc(Nc2nccc(-c3ccc(OC4CCOCC4)c(C#N)c3)n2)ccc1CN1CC(N2CCOCC2)C1` [compound 481, 5-{2-[(3-Methoxy-4-{[3-(morpholin-4-yl)azetidin-1-yl]methyl}phenyl)amino]pyrimidin-4-yl}-2-(tetrahydro-2H-pyran-4-yloxy)benzonitrile], the 50% inhibitory concentration (IC50) on TBK1 is under 10 nM; in test [1], under 100 nM; on IKKε, under 5 nM.

As to `COc1cc(Nc2nccc(-c3ccc(OC4CCOCC4)c(C#N)c3)n2)ccc1CN1CC(OC)C1` [compound 482, 5-[2-({3-Methoxy-4-[(3-methoxyazetidin-1-yl)methyl]phenyl}amino)pyrimidin-4-yl]-2-(tetrahydro-2H-pyran-4-yloxy)benzonitrile], the concentration for half-maximal inhibition (IC50) on TBK1 was under 10 nM; in test [1], under 100 nM; on IKKε, under 5 nM.

`COc1cc(Nc2nccc(-c3ccc(OC4CCOCC4)c(C#N)c3)n2)ccc1CN1CC(O)C1` [compound 483, 5-[2-({4-[(3-Hydroxyazetidin-1-yl)methyl]-3-methoxyphenyl}amino)pyrimidin-4-yl]-2-(tetrahydro-2H-pyran-4-yloxy)benzonitrile]: the half-inhibitory concentration (IC50) was under 10 nM on TBK1, under 100 nM in test [1] and 5 to 50 nM at IKKε.

`COc1cc(Nc2nccc(-c3ccc(OC4CCOCC4)c(C#N)c3)n2)ccc1C(=O)N1CC(OC)C1` [compound 484, 5-[2-({3-Methoxy-4-[(3-methoxyazetidin-1-yl)carbonyl]phenyl}amino)pyrimidin-4-yl]-2-(tetrahydro-2H-pyran-4-yloxy)benzonitrile]: the IC50 on TBK1 was 10 to 100 nM; in test [1] it was under 100 nM; at IKKε, under 5 nM.

For `COc1cc(Nc2nccc(-c3ccc(OC4CCOCC4)c(C#N)c3)n2)ccc1C(=O)N1CC(O)C1` [compound 485, 5-[2-({4-[(3-Hydroxyazetidinb-1-yl)carbonyl]-3-methoxyphenyl}amino)pyrimidin-4-yl]-2-(tetrahydro-2H-pyran-4-yloxy)benzonitrile], the values for the IC50 (on TBK1; in test [1]; on IKKε) were under 10 nM, under 100 nM and under 5 nM, respectively.

Regarding `N#Cc1cc(-c2ccnc(Nc3ccc(CN)cc3)n2)ccc1OC1CCOCC1` [compound 486, 5-(2-{[4-(aminomethyl)phenyl]amino}pyrimidin-4-yl)-2-(tetrahydro-2H-pyran-4-yloxy)benzonitrile], the 50% inhibitory concentration (IC50) on TBK1 was under 10 nM; in test [1], 250 to 500 nM; on IKKε it was under 5 nM.

In the case of `COC1CN(Cc2ccc(Nc3nccc(-c4ccc(OC5CCOCC5)c(C#N)c4)n3)cc2)C1` [compound 487], the IC50 on TBK1 was under 10 nM; in test [1] it was under 100 nM; on IKKε, under 5 nM.

On to `COCCNCc1ccc(Nc2nccc(-c3ccc(OC4CCOCC4)c(C#N)c3)n2)cc1` [compound 488, 5-{2-[(4-{[(2-methoxyethyl)amino]methyl}phenyl)amino]pyrimidin-4-yl}-2-(tetrahydro-2H-pyran-4-yloxy)benzonitrile], for which the results for the 50% inhibitory concentration (IC50) (at TBK1; in test [1]; on IKKε) were under 10 nM, under 100 nM and under 5 nM, respectively.

The values are drawn from patent US20150352108A1, “AMINO-PYRIMIDINE COMPOUNDS AS INHIBITORS OF TBK1 AND/OR IKK EPSILON” (Alzheimer's Institute of America, priority 2009, published 2015).
